Measured values as given in patent US12172990B2 (Constellation Pharmaceuticals, Inc., priority 2018, dated 2024).

What was measured:
[1] = target: human TREX2 (residues M44-A279) (Homo sapiens (Human), UniProt Q9BQ50); assay: TREX2 Biochemical Assay (fluorescence assay measuring degradation of dsDNA substrate); conditions: 2.5 nM TREX2, 60 nM dsDNA substrate, 25 minutes at room temperature
Procedure: Degradation of the dsDNA liberates free fluorophore to produce a fluorescent signal. Specifically, 7.5 μL of N-terminally His-Tev tagged human TREX2 (residues M44-A279, expressed in E. coli and purified in house) in reaction buffer (50 mM Tris (pH 7.4), 150 mM NaCl, 2 mM DTT, 0.1 mg/mL BSA, 0.01% (v/v) Tween-20 and 100 mM MgCl2) was added to a 384-well Black ProxiPlate Plus (Perkin Elmer) which already contained compound (150 nL) at varying concentrations as a 10 point dose-response in DMSO. To this was added 7.5 μL of dsDNA substrate (Strand A: 5′ TEX615/GCT AGG CAG 3′; Strand B: 5′ CTG CCT AGC/IAbRQSp (IDT)) in reaction buffer. Final concentrations were 2.5 nM TREX2, 60 nM dsDNA substrate in reaction buffer with 1.0% DMSO (v/v). After 25 minutes at room temperature, reactions were quenched by the addition of 5 μL of stop buffer (same as reaction buffer plus 200 mM EDTA). Final concentrations in the quenched reaction mixture were […] TREX2, 45 nM DNA and 50 mM EDTA in a volume of 20 μL. After a 5-minute incubation at room temperature, plates were read in a laser sourced Envision (Perkin-Elmer), measuring fluorescence at 615 nm following excitation w/570 nm light. IC50 values were calculated by comparing the measured fluorescence at 615 nm ratio relative to control wells pre-quenched w/stop buffer (100% inhibition) and no inhibitor (0% inhibition) controls as using non-linear least square four parameter fits and either Genedata or GraphPad Prism (GraphPad Software, Inc.).

[2] = target: full length human TREX1 (Homo sapiens (Human), UniProt Q9NSU2); assay: TREX1 Biochemical Assay (fluorescence assay measuring degradation of dsDNA substrate); conditions: 150 pM TREX1, 60 nM dsDNA substrate, 25 minutes at room temperature
Chain of full length human TREX1 (Q9NSU2 whole entry): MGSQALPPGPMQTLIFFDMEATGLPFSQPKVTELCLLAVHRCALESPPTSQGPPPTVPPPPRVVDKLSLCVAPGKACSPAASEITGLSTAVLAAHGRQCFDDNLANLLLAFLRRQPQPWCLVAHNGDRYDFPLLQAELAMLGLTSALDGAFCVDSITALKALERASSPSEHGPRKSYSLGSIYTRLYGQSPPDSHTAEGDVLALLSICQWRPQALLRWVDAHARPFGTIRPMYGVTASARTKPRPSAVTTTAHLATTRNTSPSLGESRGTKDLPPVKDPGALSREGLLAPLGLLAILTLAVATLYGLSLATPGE
Procedure: Degradation of the dsDNA liberates free fluorophore to produce a fluorescent signal. Specifically, 7.5 μL of N-terminally His-Tev tagged full length human TREX1 (expressed in E. coli and purified in house) in reaction buffer (50 mM Tris (pH 7.4), 150 mM NaCl, 2 mM DTT, 0.1 mg/mL BSA, 0.01% (v/v) Tween-20 and 100 mM MgCl2 were added to a 384-well Black ProxiPlate Plus (Perkin Elmer) which already contained compound (150 nL) at varying concentrations as a 10 point dose-response in DMSO. To this was added 7.5 μL of dsDNA substrate (Strand A: 5′ TEX615/GCT AGG CAG 3′; Strand B: 5′ CTG CCT AGC/IAbRQSp (Integrated DNA Technologies)) in reaction buffer. Final concentrations were 150 pM TREX1, 60 nM dsDNA substrate in reaction buffer with 1.0% DMSO (v/v). After 25 minutes at room temperature, reactions were quenched by the addition of 5 μL of stop buffer (same as reaction buffer plus 200 mM EDTA). Final concentrations in the quenched reaction were 112.5 pM TREX1, 45 nM DNA and 50 mM EDTA in a volume of 20 μL. After a 5-minute incubation at room temperature, plates were read in a laser sourced Envision (Perkin-Elmer), measuring fluorescence at 615 nm following excitation w/570 nm light. IC50 values were calculated by comparing the measured fluorescence at 615 nm ratio relative to control wells pre-quenched w/stop buffer (100% inhibition) and no inhibitor (0% inhibition) controls as using non-linear least square four parameter fits and either Genedata or GraphPad Prism (GraphPad Software, Inc.).

Chain of human TREX2 (residues M44-A279) (Q9BQ50 whole entry, the tested form may be a part): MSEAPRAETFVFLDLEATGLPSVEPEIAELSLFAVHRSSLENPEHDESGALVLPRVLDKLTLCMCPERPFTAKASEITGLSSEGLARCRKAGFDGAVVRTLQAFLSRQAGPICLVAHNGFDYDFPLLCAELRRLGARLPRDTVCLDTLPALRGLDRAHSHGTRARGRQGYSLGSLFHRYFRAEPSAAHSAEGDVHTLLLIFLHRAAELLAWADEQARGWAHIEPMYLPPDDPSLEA

| SMILES | IC50 [1] [nM] | IC50 [2] [nM] |
| --- | --- | --- |
| Cn1c(-c2ccccc2)nc(C(=O)Nc2cnoc2)c(O)c1=O [Example 8, 5-hydroxy-N-(isoxazol-4-yl)-1-methyl-6-oxo-2-phenyl-1,6-dihydropyrimidine-4-carboxamide] | 10000 to 100000 | 100 to 1000 |
| Cn1c([C@H]2CCC[C@@H](NC(=O)c3ccc(Cl)c(Cl)c3)C2)nc(C(=O)Nc2cnoc2)c(O)c1=O [Example 82, 2-((1S,3R)-3-(3,4-dichlorobenzamido)cyclohexyl)-5-hydroxy-N-(isoxazol-4-yl)-1-methyl-6-oxo-1,6-dihydropyrimidine-4-carboxamide] | 10000 to 100000 | 1000 to 10000 |
| Cn1c(C2CCC2)nc(C(=O)Nc2cnoc2)c(O)c1=O [Example 2, 2-cyclobutyl-5-hydroxy-N-(isoxazol-4-yl)-1-methyl-6-oxo-1,6-dihydropyrimidine-4-carboxamide] | 10000 to 100000 | 100 to 1000 |
| Cn1c(N2CC(OCc3ccccc3)C2)nc(C(=O)Nc2cnoc2)c(O)c1=O [Example 123, 2-(3-(benzyloxy)azetidin-1-yl)-5-hydroxy-N-(isoxazol-4-yl)-1-methyl-6-oxo-1,6-dihydropyrimidine-4-carboxamide] | 10000 to 100000 | 100 to 1000 |
| Cn1c(-c2ccccc2-c2cccnc2)nc(C(=O)Nc2cnoc2)c(O)c1=O [Example 66, 5-hydroxy-N-(isoxazol-4-yl)-1-methyl-6-oxo-2-(2-(pyridin-3-yl)phenyl)-1,6-dihydropyrimidine-4-carboxamide] | 10000 to 100000 | 100 to 1000 |
| Cn1c(C2CC2)nc(C(=O)Nc2cnoc2)c(O)c1=O [Example 3, 2-cyclopropyl-5-hydroxy-N-(isoxazol-4-yl)-1-methyl-6-oxo-1,6-dihydropyrimidine-4-carboxamide] | 10000 to 100000 | 100 to 1000 |
| Cn1c(C2CCN(C(=O)OC(C)(C)C)CC2)nc(C(=O)Nc2cnoc2)c(O)c1=O [Example 12, tert-butyl 4-(5-hydroxy-4-(isoxazol-4-ylcarbamoyl)-1-methyl-6-oxo-1,6-dihydropyrimidin-2-yl)piperidine-1-carboxylate] | 10000 to 100000 | 1000 to 10000 |
| Cn1c(N2CCCCC2)nc(C(=O)Nc2cnoc2)c(O)c1=O [Example 28, 5-hydroxy-N-(isoxazol-4-yl)-1-methyl-6-oxo-2-(piperidin-1-yl)-1,6-dihydropyrimidine-4-carboxamide] | 10000 to 100000 | 100 to 1000 |
| Cn1c(N2CCC[C@H](c3ccccn3)C2)nc(C(=O)Nc2cnoc2)c(O)c1=O [Example 101, (S)-5-hydroxy-N-(isoxazol-4-yl)-1-methyl-6-oxo-2-(3-(pyridin-2-yl)piperidin-1-yl)-1,6-dihydropyrimidine-4-carboxamide] | 10000 to 100000 | 100 to 1000 |
| Cn1c(-c2ccncc2)nc(C(=O)Nc2cnoc2)c(O)c1=O [Example 21, 5-hydroxy-N-(isoxazol-4-yl)-1-methyl-6-oxo-2-(pyridin-4-yl)-1,6-dihydropyrimidine-4-carboxamide] | > 100000 | 1000 to 10000 |
| Cn1c(C2CCCN(C(=O)OC(C)(C)C)C2)nc(C(=O)Nc2cnoc2)c(O)c1=O (stereo not drawn) [Example 13, tert-butyl 3-(5-hydroxy-4-(isoxazol-4-ylcarbamoyl)-1-methyl-6-oxo-1,6-dihydropyrimidin-2-yl)piperidine-1-carboxylate] | 10000 to 100000 | 100 to 1000 |
| Cn1c(N2CCN(C(=O)c3ccccc3)CC2)nc(C(=O)Nc2cnoc2)c(O)c1=O [Example 100, 2-(4-benzoylpiperazin-1-yl)-5-hydroxy-N-(isoxazol-4-yl)-1-methyl-6-oxo-1,6-dihydropyrimidine-4-carboxamide] | 10000 to 100000 | 100 to 1000 |

Other lines, results leading:

| IC50 [1] [nM] | IC50 [2] [nM] | SMILES |
| --- | --- | --- |
| 1000 to 10000 | 100 to 1000 | Cn1c(C2(C)CCCN(C(=O)c3ccc(Cl)c(Cl)c3)C2)nc(C(=O)Nc2cnoc2)c(O)c1=O (stereo not drawn) [Example 130, 2-(1-(3,4-dichlorobenzoyl)-3-methylpiperidin-3-yl)-5-hydroxy-N-(isoxazol-4-yl)-1-methyl-6-oxo-1,6-dihydropyrimidine-4-carboxamide] |
| 1000 to 10000 | 100 to 1000 | COC(=O)c1cc(C)cc(-c2nc(C(=O)Nc3cnoc3)c(O)c(=O)n2C)c1 [Example 53, methyl 3-(5-hydroxy-4-(isoxazol-4-ylcarbamoyl)-1-methyl-6-oxo-1,6-dihydropyrimidin-2-yl)-5-methylbenzoate] |
| 1000 to 10000 | 100 to 1000 | Cn1c(C2CCCN(C(=O)Cc3ccccc3)C2)nc(C(=O)Nc2cnoc2)c(O)c1=O (stereo not drawn) [Example 61, 5-hydroxy-N-(isoxazol-4-yl)-1-methyl-6-oxo-2-(1-(2-phenylacetyl)piperidin-3-yl)-1,6-dihydropyrimidine-4-carboxamide] |
| 1000 to 10000 | 100 to 1000 | Cc1cc(Nc2cnn(C)c2)cc(-c2nc(C(=O)Nc3cnoc3)c(O)c(=O)n2C)c1 [Example 32, 5-hydroxy-N-(isoxazol-4-yl)-1-methyl-2-(3-methyl-5-((1-methyl-1H-pyrazol-4-yl)amino)phenyl)-6-oxo-1,6-dihydropyrimidine-4-carboxamide] |
| 1000 to 10000 | < 100 | Cn1c(N2CCC[C@@H]2c2ccccc2)nc(C(=O)Nc2cnoc2)c(O)c1=O [Example 113, (R)-5-hydroxy-N-(isoxazol-4-yl)-1-methyl-6-oxo-2-(2-phenylpyrrolidin-1-yl)-1,6-dihydropyrimidine-4-carboxamide] |
| 1000 to 10000 | 100 to 1000 | Cn1c(C2(COCc3ccccc3)CCCN(C(=O)OC(C)(C)C)C2)nc(C(=O)Nc2cnoc2)c(O)c1=O (stereo not drawn) [Example 52, tert-butyl 3-((benzyloxy)methyl)-3-(5-hydroxy-4-(isoxazol-4-ylcarbamoyl)-1-methyl-6-oxo-1,6-dihydropyrimidin-2-yl)piperidine-1-carboxylate] |
| 1000 to 10000 | < 100 | Cn1c(Oc2ccccc2)nc(C(=O)Nc2cnoc2)c(O)c1=O [Example 120, 5-hydroxy-N-(isoxazol-4-yl)-1-methyl-6-oxo-2-phenoxy-1,6-dihydropyrimidine-4-carboxamide] |
| 1000 to 10000 | < 100 | Cn1c(N2CCC[C@@H]2c2ccccc2Cl)nc(C(=O)Nc2cnoc2)c(O)c1=O [Example 124, (R)-2-(2-(2-chlorophenyl)pyrrolidin-1-yl)-5-hydroxy-N-(isoxazol-4-yl)-1-methyl-6-oxo-1,6-dihydropyrimidine-4-carboxamide] |
| 1000 to 10000 | < 100 | Cn1c([C@H]2CCCN(C(=O)c3ccc(F)c(Cl)c3)C2)nc(C(=O)Nc2cnoc2)c(O)c1=O [Example 88, (S)-2-(1-(3-chloro-4-fluorobenzoyl)piperidin-3-yl)-5-hydroxy-N-(isoxazol-4-yl)-1-methyl-6-oxo-1,6-dihydropyrimidine-4-carboxamide] |
| 1000 to 10000 | 100 to 1000 | Cn1c(C2CCCN(C(=O)c3ccc(Cl)cc3)C2)nc(C(=O)Nc2cnoc2)c(O)c1=O (stereo not drawn) [Example 59, 2-(1-(4-chlorobenzoyl)piperidin-3-yl)-5-hydroxy-N-(isoxazol-4-yl)-1-methyl-6-oxo-1,6-dihydropyrimidine-4-carboxamide] |
| 1000 to 10000 | 100 to 1000 | Cn1c(C2CCCN(C(=O)c3ccccn3)C2)nc(C(=O)Nc2cnoc2)c(O)c1=O (stereo not drawn) [Example 40, 5-hydroxy-N-(isoxazol-4-yl)-1-methyl-6-oxo-2-(1-picolinoylpiperidin-3-yl)-1,6-dihydropyrimidine-4-carboxamide] |
| 1000 to 10000 | 100 to 1000 | Cc1cc(-c2nc(C(=O)Nc3cnoc3)c(O)c(=O)n2C)cc(N2CCOCC2)c1 [Example 31, 5-hydroxy-N-(isoxazol-4-yl)-1-methyl-2-(3-methyl-5-morpholinophenyl)-6-oxo-1,6-dihydropyrimidine-4-carboxamide] |
